Source: ChEMBL document CHEMBL4665648, “Potent and selective inhibitors of receptor-interacting protein kinase 1 that lack an aromatic back pocket group” (Bioorg Med Chem Lett, 2019)
In brackets after ≈: the same amount, converted by molar mass.

Experiments:
[1] = Kinetic solubility of compound at pH 7.4; type: physicochemical; settings: buffer, read-out: Kinetic_solubility
[2] = Lipophilicity, logD of compound at pH 7.4; type: physicochemical; settings: buffer
[3] = Inhibition of necroptosis in human HT-29 cells assessed as reduction in TNFalpha/BV6/zVAD-fmk-induced cell death incubated for 18 hrs by Cell Titer Glo luminescent cell viability assay; type: functional, cell-based; settings: HT-29, 18 h
[4] = target: T1, Receptor-interacting serine/threonine-protein kinase 1 (Homo sapiens, UniProt Q13546); assay: Inhibition of recombinant human His/GST-tagged RIPK1 (2 to 257 residues) expressed in insect expression system incubated for 2 hrs by fluorescence polarization assay; settings: read-out: Ki(app)
T1 sequence (Q13546 whole entry): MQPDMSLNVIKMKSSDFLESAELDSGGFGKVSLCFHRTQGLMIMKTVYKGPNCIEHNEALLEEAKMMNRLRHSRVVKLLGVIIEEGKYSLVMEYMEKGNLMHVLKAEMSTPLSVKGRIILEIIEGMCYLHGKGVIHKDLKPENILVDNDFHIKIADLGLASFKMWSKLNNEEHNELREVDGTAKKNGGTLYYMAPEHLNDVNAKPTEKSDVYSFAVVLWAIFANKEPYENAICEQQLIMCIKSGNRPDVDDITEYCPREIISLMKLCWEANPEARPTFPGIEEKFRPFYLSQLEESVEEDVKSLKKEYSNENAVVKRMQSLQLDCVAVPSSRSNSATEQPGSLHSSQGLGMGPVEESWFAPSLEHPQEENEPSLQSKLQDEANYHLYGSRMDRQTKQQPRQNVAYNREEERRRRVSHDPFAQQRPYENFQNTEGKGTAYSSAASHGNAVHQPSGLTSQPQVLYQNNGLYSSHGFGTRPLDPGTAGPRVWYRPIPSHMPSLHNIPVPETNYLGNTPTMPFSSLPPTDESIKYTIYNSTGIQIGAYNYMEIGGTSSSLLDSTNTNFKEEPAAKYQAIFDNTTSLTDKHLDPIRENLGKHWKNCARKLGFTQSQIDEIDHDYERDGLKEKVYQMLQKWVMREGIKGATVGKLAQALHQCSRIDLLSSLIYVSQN

| SMILES | solubility kinetic [1] [µM] | logD [2] | EC50 [3] [nM] | Ki [4] [nM] |
| --- | --- | --- | --- | --- |
| CN1C(=O)[C@@H](NC(=O)c2nnn3c2CC(C(F)(F)C(F)(F)F)CC3)COc2ccccc21 (mixture of isomers) | 57.1 | 2 | 64 |  |
| CN1C(=O)[C@@H](NC(=O)c2n[nH]c3ncc(C(F)(F)F)cc23)COc2ccccc21 | 59 (≈ 23.9 µg/mL) | 3.3 | 580 |  |
| C[C@H]1CCc2[nH]nc(C(=O)N[C@H]3COc4ccccc4N(C)C3=O)c2C1 |  |  | 400 |  |
| C[C@@H]1CCc2[nH]nc(C(=O)N[C@H]3COc4ccccc4N(C)C3=O)c2C1 |  |  | 130 |  |
| CN1C(=O)[C@@H](NC(=O)c2n[nH]c3c2CC2CC2C3)COc2ccccc21 (mixture of isomers) |  |  | 7000 |  |
| CN1C(=O)[C@@H](NC(=O)c2n[nH]c3c2C2CC2CC3)COc2ccccc21 (single isomer, unassigned; diastereomer 1) |  |  | 6900 |  |
| CN1C(=O)[C@@H](NC(=O)c2n[nH]c3c2CCCC3)COc2ccccc21 |  |  | 15000 |  |
| CN1C(=O)[C@@H](NC(=O)c2n[nH]c3ccc(C(F)(F)F)cc23)COc2ccccc21 |  |  | 28 | 5 |
| CN1C(=O)[C@@H](NC(=O)c2nn(C)c3c2C[C@H](C(F)(F)F)CC3)COc2ccccc21 |  |  | 500 | 63 |
| CN1C(=O)[C@@H](NC(=O)c2n[nH]c3c2CC(C)(C)CC3)COc2ccccc21 |  |  | 170 | 42 |
| CN1C(=O)[C@@H](NC(=O)c2nnc[nH]2)COc2ccccc21 |  |  | > 20000 | > 10000 |
| CN1C(=O)[C@@H](NC(=O)c2n[nH]c3c2CCC(C)(C)C3)COc2ccccc21 |  |  | > 20000 | > 10000 |
| CN1C(=O)[C@@H](NC(=O)c2n[nH]c3c2CC(c2ccccc2)CC3)COc2ccccc21 (mixture of isomers) |  |  | 520 |  |
| CN1C(=O)[C@@H](NC(=O)c2n[nH]c3c2CC(n2cccn2)CC3)COc2ccccc21 (mixture of isomers) |  |  | 4100 |  |
| CN1C(=O)[C@@H](NC(=O)c2nnc3ccc(C(F)(F)C(F)(F)F)nn23)COc2ccccc21 | 164 (≈ 74.8 µg/mL) | 1.6 | 130 |  |
| CN1C(=O)[C@@H](NC(=O)c2n[nH]c3c2C[C@H](C(C)(C)C)CC3)COc2ccccc21 |  |  | 290 |  |
| CN1C(=O)[C@@H](NC(=O)c2nnn3c2C[C@H](C(F)(F)F)CC3)COc2ccccc21 | 99 (≈ 40.5 µg/mL) | 1.5 | 210 |  |
| CN1C(=O)[C@@H](NC(=O)c2nnc3ccc(C(F)(F)F)nn23)COc2ccccc21 | 160 (≈ 65 µg/mL) | 1 | 2400 |  |
| CN1C(=O)[C@@H](NC(=O)c2n[nH]c3c2C[C@H](C(F)(F)F)CC3)COc2ccccc21 |  |  | 43 | 7 |
| CC(C)c1cnc2[nH]nc(C(=O)N[C@H]3COc4ccccc4N(C)C3=O)c2c1 | 3.4 (≈ 1.29 µg/mL) | 3.5 | 390 |  |
| CN1C(=O)[C@@H](NC(=O)c2n[nH]c3c2CCC2(CC2)C3)COc2ccccc21 |  |  | > 20000 |  |
| CN1C(=O)[C@@H](NC(=O)c2ncn3ccc(C(F)(F)F)cc23)COc2ccccc21 |  |  | 12 | 5 |
